Results on 17 molecules are retold here after patent publication US20250255848A1, “SUBSTITUTED 6,7-DIHYDRO-5H-BENZO[7]ANNULENE DERIVATIVES, PROCESSES FOR THEIR PREPARATION AND THERAPEUTIC USES THEREOF” (SANOFI, priority 2022, published 2025).

For this assay, the target named is ERα (Homo sapiens (Human), UniProt P03372). Kind of assay: Estrogen receptor degradation activity: breast cancer cell ERα in cell western assay. The format is cell-based. To be noted: MCF7 cells; for % Degradation At 0.3 μM: 4 hours, normalised to fulvestrant 0.1 μM and DMSO; for pIC50: 4 hours post compound addition, concentration which degrades 50% of the estrogen receptor. The procedure, abridged: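 MCF7 cells in phenol-red-free medium with 5% charcoal-stripped FBS, treated 4 h with 9-point 1:5 dilutions (0.3-0.0000018 μM final). ERα measured by in-cell western (anti-ER antibody, Alexa 488), normalized to Syto-64 DNA stain; % decrease scaled DMSO to 0.1 μM fulvestrant, IC50 in nM.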

pIC50: −log10 of the molar value.

ERα, sequence (P03372 whole entry): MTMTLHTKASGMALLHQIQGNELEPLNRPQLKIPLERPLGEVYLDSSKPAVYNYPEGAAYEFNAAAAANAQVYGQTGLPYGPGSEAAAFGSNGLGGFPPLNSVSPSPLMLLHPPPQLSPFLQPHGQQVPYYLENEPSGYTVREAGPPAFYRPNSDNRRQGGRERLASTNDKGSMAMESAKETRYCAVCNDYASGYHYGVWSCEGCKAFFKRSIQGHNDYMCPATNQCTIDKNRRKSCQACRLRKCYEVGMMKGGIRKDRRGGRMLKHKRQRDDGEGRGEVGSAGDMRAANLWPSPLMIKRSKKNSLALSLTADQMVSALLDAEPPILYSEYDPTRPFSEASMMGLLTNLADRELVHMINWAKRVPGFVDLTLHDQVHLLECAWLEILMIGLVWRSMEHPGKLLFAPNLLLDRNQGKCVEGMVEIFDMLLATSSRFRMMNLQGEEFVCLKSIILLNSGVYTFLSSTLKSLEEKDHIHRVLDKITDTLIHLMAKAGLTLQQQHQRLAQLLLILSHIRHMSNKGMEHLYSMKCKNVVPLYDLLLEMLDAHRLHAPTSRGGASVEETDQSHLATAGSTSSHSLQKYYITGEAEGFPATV

`Cc1cccc(F)c1C1=C(c2ccc(C=C3CN(CCCF)C3)cc2)c2ccc(C(=O)O)cc2CCC1` [Compound 26, 8-(2-fluoro-6-methylphenyl)-9-(4-((1-(3-fluoropropyl)azetidin-3-ylidene)methyl)phenyl)-6,7-dihydro-5H-benzo[7]annulene-3-carboxylic acid]: the “% Degradation At 0.3 μM” value is 91% and the pIC50 is 9.70.
In the case of `Cc1cc(C(F)F)ccc1C1=C(c2ccc(C=C3CN(CCCF)C3)cc2)c2ccc(C(=O)O)cc2CCC1` [Compound 44, 8-(4-(difluoromethyl)-2-methylphenyl)-9-(4-((1-(3-fluoropropyl)azetidin-3-ylidene)methyl)phenyl)-6,7-dihydro-5H-benzo[7]annulene-3-carboxylic acid], the “% Degradation At 0.3 μM” value was 93% and the negative logarithm of the IC50 (pIC50) was 9.30.
The like results for `COc1cccc(C)c1C1=C(c2ccc(C=C3CN(CCCF)C3)cc2)c2ccc(C(=O)O)cc2CCC1` [Compound 4, 9-(4-((1-(3-fluoropropyl)azetidin-3-ylidene)methyl)phenyl)-8-(2-methoxy-6-methylphenyl)-6,7-dihydro-5H-benzo[7]annulene-3-carboxylic acid] were, in that order, 90% and 8.96.
Consider `COc1ccc(C2=C(c3ccc(C=C4CN(CCCF)C4)cc3)c3ccc(C(=O)O)cc3CCC2)cc1OC` [Compound 82, 8-(3,4-dimethoxyphenyl)-9-(4-((1-(3-fluoropropyl)azetidin-3-ylidene)methyl)phenyl)-6,7-dihydro-5H-benzo[7]annulene-3-carboxylic acid], for which the “% Degradation At 0.3 μM” value came out at 95% and the pIC50 is 8.85.
For the molecule `COc1cc(C(F)(F)F)ccc1C1=C(c2ccc(C=C3CN(CCCF)C3)cc2)c2ccc(C(=O)O)cc2CCC1` [Compound 59, 9-(4-((1-(3-fluoropropyl)azetidin-3-ylidene)methyl)phenyl)-8-(2-methoxy-4-(trifluoromethyl)phenyl)-6,7-dihydro-5H-benzo[7]annulene-3-carboxylic acid], the “% Degradation At 0.3 μM” value came out at 92% and the negative logarithm of the IC50 (pIC50) was 9.05.
Turning to `COc1ccc(C2=C(c3ccc(C=C4CN(CCCF)C4)cc3)c3ccc(C(=O)O)cc3CCC2)c(C(F)F)c1` [Compound 37, 8-(2-(difluoromethyl)-4-methoxyphenyl)-9-(4-((1-(3-fluoropropyl)azetidin-3-ylidene)methyl)phenyl)-6,7-dihydro-5H-benzo[7]annulene-3-carboxylic acid], the “% Degradation At 0.3 μM” value turned out to be 91% and the negative logarithm of the IC50 (pIC50) was 9.22.
In the case of `COc1ccc(C(F)(F)F)c(C2=C(c3ccc(C=C4CN(CCCF)C4)cc3)c3ccc(C(=O)O)cc3CCC2)c1` [Compound 47, 9-(4-((1-(3-fluoropropyl)azetidin-3-ylidene)methyl)phenyl)-8-(5-methoxy-2-(trifluoromethyl)phenyl)-6,7-dihydro-5H-benzo[7]annulene-3-carboxylic acid], the “% Degradation At 0.3 μM” value worked out at 93% and the negative logarithm of the IC50 (pIC50) was 9.30.
For the molecule `COc1ccc(C2=C(c3ccc(C=C4CN(CCCF)C4)cc3)c3ccc(C(=O)O)cc3CCC2)c(C(F)(F)F)c1` [Compound 62, 9-(4-((1-(3-fluoropropyl)azetidin-3-ylidene)methyl)phenyl)-8-(4-methoxy-2-(trifluoromethyl)phenyl)-6,7-dihydro-5H-benzo[7]annulene-3-carboxylic acid], the “% Degradation At 0.3 μM” value was found to be 93% and the pIC50 was 9.30.
`CC1(C)CCC(C2=C(c3ncc(C=C4CN(CCC(F)F)C4)cc3F)c3ccc(C(=O)O)cc3CCC2)CC1` [Compound 66, 9-(5-((1-(3,3-difluoropropyl)azetidin-3-ylidene)methyl)-3-fluoropyridin-2-yl)-8-(4,4-dimethylcyclohexyl)-6,7-dihydro-5H-benzo[7]annulene-3-carboxylic acid]: the “% Degradation At 0.3 μM” value came to 86% and the pIC50 is 8.77.
As for `COc1cccc(F)c1C1=C(c2ccc(C=C3CN(CCCF)C3)cc2)c2ccc(C(=O)O)cc2CCC1` [Compound 22, 8-(2-fluoro-6-methoxyphenyl)-9-(4-((1-(3-fluoropropyl)azetidin-3-ylidene)methyl)phenyl)-6,7-dihydro-5H-benzo[7]annulene-3-carboxylic acid], the “% Degradation At 0.3 μM” value amounted to 94% and the pIC50 was 9.30.
With `Cc1ccc(C2=C(c3ccc(C=C4CN(CCCF)C4)cc3)c3ccc(C(=O)O)cc3CCC2)c(C)c1Cl` [Compound 13, 8-(3-chloro-2,4-dimethylphenyl)-9-(4-((1-(3-fluoropropyl)azetidin-3-ylidene)methyl)phenyl)-6,7-dihydro-5H-benzo[7]annulene-3-carboxylic acid], the “% Degradation At 0.3 μM” value is 91% and the negative logarithm of the IC50 (pIC50) is 9.40.
As for `O=C(O)c1ccc2c(c1)CCCC(c1ccccc1C(F)F)=C2c1ccc(C=C2CN(CCCF)C2)cc1` [Compound 58, 8-(2-(difluoromethyl)phenyl)-9-(4-((1-(3-fluoropropyl)azetidin-3-ylidene)methyl)phenyl)-6,7-dihydro-5H-benzo[7]annulene-3-carboxylic acid], the “% Degradation At 0.3 μM” value amounted to 93% and the pIC50 was 9.70.
The like results for `Cc1c(OC(F)(F)F)cccc1C1=C(c2ccc(C=C3CN(CCCF)C3)cc2)c2ccc(C(=O)O)cc2CCC1` [Compound 24, 9-(4-((1-(3-fluoropropyl)azetidin-3-ylidene)methyl)phenyl)-8-(2-methyl-3-(trifluoromethoxy)phenyl)-6,7-dihydro-5H-benzo[7]annulene-3-carboxylic acid] were, in that order, 91% and 9.30.
As to `COc1cc(Cl)cc(C)c1C1=C(c2ccc(C=C3CN(CCCF)C3)cc2)c2ccc(C(=O)O)cc2CCC1` [Compound 83, 8-(4-chloro-2-methoxy-6-methylphenyl)-9-(4-((1-(3-fluoropropyl)azetidin-3-ylidene)methyl)phenyl)-6,7-dihydro-5H-benzo[7]annulene-3-carboxylic acid], the “% Degradation At 0.3 μM” value is recorded as 94% and the pIC50 is 9.40.
Regarding `O=C(O)c1ccc2c(c1)CCCC(c1c(Cl)cccc1C(F)(F)F)=C2c1ccc(C=C2CN(CCCF)C2)cc1` [Compound 16, 8-(2-chloro-6-(trifluoromethyl)phenyl)-9-(4-((1-(3-fluoropropyl)azetidin-3-ylidene)methyl)phenyl)-6,7-dihydro-5H-benzo[7]annulene-3-carboxylic acid], the “% Degradation At 0.3 μM” value was 92% and the pIC50 was 9.52.
In the case of `Cc1ccc(C2=C(c3ccc(C=C4CN(CCCF)C4)cc3)c3ccc(C(=O)O)cc3CCC2)c(C)c1F` [Compound 12, 8-(3-fluoro-2,4-dimethylphenyl)-9-(4-((1-(3-fluoropropyl)azetidin-3-ylidene)methyl)phenyl)-6,7-dihydro-5H-benzo[7]annulene-3-carboxylic acid], the “% Degradation At 0.3 μM” value stood at 92% and the pIC50 was 9.15.
For `COc1c(F)ccc(C)c1C1=C(c2ccc(C=C3CN(CCCF)C3)cc2)c2ccc(C(=O)O)cc2CCC1` [Compound 7, 8-(3-fluoro-2-methoxy-6-methylphenyl)-9-(4-((1-(3-fluoropropyl)azetidin-3-ylidene)methyl)phenyl)-6,7-dihydro-5H-benzo[7]annulene-3-carboxylic acid], the “% Degradation At 0.3 μM” value is given as 94% and the pIC50 was 9.30.

A word on the pIC50: it is the negative decadic logarithm of the IC50, by convention in mol/L. The low end stands for a high IC50, the high end for a low IC50.
